# Assay results published in paper PMC7508583, “Discovery and Preclinical Development of Antigiardiasis Fumagillol Derivatives” (Antimicrobial Agents and Chemotherapy, 2020).
# Tests used:
# [1] = tested on: G. lamblia GS trophozoites; test: Trophozoite viability MLC determination; assay type: cell-based, Giardia lamblia
# Procedure: The inhibition of metabolism enables the organism to resume proliferation once treatment is completed. To discriminate between the lethality of the promising compounds and the induction of metabolic inactivity by the promising compounds, the minimum lethal concentration (MLC) values were determined by treating the trophozoites with the test compounds for 3 days and transferring the resulting cultures to medium lacking the compounds for 3 days of proliferation. This assay was described previously for G. lamblia ([18]) and was adapted to E. histolytica in the current study.
# Trophozoites of G. lamblia isolates WB and GS were grown anaerobically in borosilicate glass screw-cap culture tubes (Fisher Scientific) at pH 7.0 in Keister’s modified TYI-S-33 medium (ATCC). The medium was supplemented with 10% heat-inactivated bovine serum (Sigma-Aldrich) and 0.05% bovine bile (Sigma-Aldrich). To attain low-oxygen-tension conditions, the tubes were filled to 85% to 90% of their total volume capacity and incubated without shaking at 37°C. Subcultures (2 × 10^5 trophozoites per tube) were made three times a week. Detachment of trophozoites for inoculation was achieved by chilling the cultures on ice for 20 min. Culturing and detachment of metronidazole-resistant G. lamblia assemblage A 713M3 and assemblage B 1279-M1 trophozoites followed the same protocol, except that the growth medium was supplemented with metronidazole, with the concentration gradually being increased to 10 μM.
# Compounds were prepared by 2-fold serial dilutions in growth medium containing 0.5% DMSO (diluted from a starting concentration of 1 μM to 12 concentrations for all compounds except metronidazole, fumagillol, and TNP-470, which were diluted from 100 μM), and 100 μl/well was transferred in duplicate to the 96-well culture plate. Ten microliters of G. lamblia trophozoites was plated at a density of 10,000 cells/well. The plates were incubated under anaerobic condition in a BD GasPak EZ container system (BD Diagnostics) at 37°C for 72 h and surveyed visually under a microscope to check trophozoite survival, mobility, and attachment. […] The tubes were incubated under anaerobic condition for 3 days at 37°C and checked under a microscope. The MLC value was the concentration in the tube with the lowest compound concentration without any live organism.
# [2] = Plasma pharmacokinetics in mice; assay type: in vivo, C57BL/6 female mice
# Procedure: The mean plasma concentration-time profiles for intravenous (i.v.) and per os (p.o.) administration in C57BL/6 female mice are shown in Fig. 6A. […] In contrast, at the earliest time point (15 min) following oral administration of a 6.6-mg/kg bolus, the plasma concentration reached a maximum of ∼92 ng/ml and then decreased gradually and remained detectable for 8 h.
# Plasma intravenous (i.v.) and per os (p.o.) pharmacokinetic studies were performed in C57BL/6 female mice, using two groups of three mice each. […] The second group of mice received a 6.6-mg/kg dose orally; this dose matched the therapeutic dose that cured giardiasis with no remaining proliferating trophozoites. Blood samples were withdrawn at 5, 15, and 30 min and 1, 2, 4, 8, and 24 h after administration for the i.v. treated mouse group and at the same time intervals but beginning at 15 min for the p.o. treated mouse group. The samples were extracted with 60% water-diluted acetonitrile and were frozen at −20°C until analysis.
# Blank and test compound-containing samples were thawed, vortexed to ensure complete mixing of the contents, and centrifuged at 4,000 rpm at 20°C for 10 min. The supernatants were transferred into autoinjector vials. The vials were loaded, and 30-μl sample volumes were injected onto an API 4000 LC-MS/MS system. The Agilent XDB C18 column was used for the liquid chromatographic step at a flow rate of 0.6 ml/min. The mass spectrometer was operated in the electrospray ionization-positive mode. Curcumin served as an internal standard. The chromatograms were evaluated using Analyst (version 1.6.3) software.
# [3] = Single-dose acute toxicity (MTD) and histopathology; settings: in vivo
# Procedure: The tissues of three surviving mice were analyzed along with the tissues of three animals treated with the vehicle alone. […] Based on these findings, the maximum tolerated dose (MTD) value was determined to be 1,500 mg/kg.
# The maximum tolerated dose (MTD) determination was performed using 8- to 10-week-old C57BL/6 female mice in five groups of 6 animals each. The mice were acclimated to the study room for a week. Animals were randomized by body weight prior to being assigned to dosage groups at the outset of the study. […] Following an up-down dosing strategy, the clinical signs and body weights of the animals in a study group were evaluated daily for 5 days before escalating or reducing the dose administered to the next group, as appropriate. The clinical observations included posture, vocalization, ease of handling, lacrimation, chromodacryorrhea, salivation, coat appearance, rearing frequency, transfer arousal, piloerection, motor movements, tail pinch, and diarrhea.
# The histopathology examination included 3 mice that survived treatment with the 2,000-mg/kg dose and 3 mice that received the vehicle alone. Brain, heart, lung, spleen, and liver tissues were examined. Formalin-fixed tissues were embedded in paraffin to produce 4-μm-thick sections. The paraffin wax was removed, and the tissues were stained with Gill’s hematoxylin for 5 to 10 min. The samples were rinsed in tap water, followed by ammonia water, and stained with eosin Y for 5 min. The hematoxylin-eosin-stained tissues were dehydrated and mounted for light microscopic examination.
# [4] = tested on: G. lamblia GS trophozoites; design: method as in PMID 21078930, PMID 25267663; settings: read-out: IC50 against assemblage B GS strain; cited from earlier work
# [5] = Accelerated temperature/humidity degradation test; assay type: physicochemical; settings: day 28, 37°C; for Mean ± SE degradation at 4 wk and 37°C, 75% humidity: 75% relative humidity; for Mean ± SE degradation at 4 wk and 37°C, uncontrolled humidity: uncontrolled relative humidity
# Procedure: Accelerated temperature tests were performed at 37°C and under 75% relative humidity or laboratory uncontrolled relative humidity, comparing compounds 3 and 9 to fumagillin. Sanofi reported previously that fumagillin degraded from 98% to 85% purity when stored at 40°C for 2 weeks at ambient humidity ([42]).
# For accelerated temperature degradation tests at 75% relative humidity and at laboratory uncontrolled relative humidity, fumagillin and compounds 3 and 9 were incubated at 37°C under either controlled or uncontrolled humidity, and the samples were analyzed by HPLC every week for 4 weeks. Measurements were made in duplicate. Area-under-the-curve values were calculated to derive the percentage of compound remaining. For pH degradation, the compounds were dissolved in DMSO and mixed with pH 3.0 buffer. The samples were incubated at 25°C for up to 48 h. Samples were analyzed by HPLC every 2 h for the first 8 h and then after 24 and 48 h.
# [6] = tested on: G. lamblia WB trophozoites; design: method as in PMID 21078930, PMID 25267663; settings: read-out: IC50 against assemblage A WB strain; cited from earlier work
smiles,measurement,setting,value
COC1C(OC(=O)NC(=O)CN2CCOCC2)CCC2(CO2)C1C1(C)OC1CC=C(C)C (stereo not shown) [Compound 3],fold improved MLCs compared with the MLC of fumagillin,[1],~100 fold
"CO[C@@H]1[C@H](OC(=O)Nc2ccc(C(=O)O)cc2)CC[C@]2(CO2)[C@H]1[C@@]1(C)O[C@@H]1CC=C(C)C [Compound 9, 4-(((((3R,4S,5S,6R)-5-methoxy-4-((2R,3R)-2-methyl-3-(3-methylbut-2-en-1-yl)oxiran-2-yl)-1-oxaspiro[2.5]octan-6-yl)oxy)carbonyl)amino)benzoic acid]",time plasma concentration remained detectable,[2]; 6.6 mg/kg oral bolus,8 h
same,maximum plasma concentration,"[2]; 6.6 mg/kg oral bolus, C57BL/6 female mice",~92 ng/mL
same,time point of maximum plasma concentration,"[2]; 6.6 mg/kg oral bolus, earliest time point",15 min
same,half-life,"[2]; mouse, iv, 2 mg/kg i.v., plasma, C57BL/6 female mice, read-out: calculated half-life",7.2 min
same,concentration at 5 min,"[2]; mouse, plasma, intravenous, 2 mg/kg i.v. bolus, C57BL/6 female mice, read-out: plasma concentration at the 5-min time point",~136 ng/mL
same,concentration at 1 h,"[2]; mouse, plasma, intravenous, 2 mg/kg i.v. bolus, C57BL/6 female mice, read-out: plasma concentration by 1 h after dosing (below limit of quantification)",< 5 ng/mL
same,LD50 at 5 days,"[3]; female, C57BL/6, mouse, po",> 2000 mg/kg
same,MTD at 5 days,"[3]; female, C57BL/6, mouse, po",1500 mg/kg
same,"histopathology of liver, heart, brain, lung, spleen",[3]; mouse,normal tissue with no significant changes compared with the control tissues
same,mortality,[3]; mouse,two mice died unexpectedly
same,reduced body weight on day 3,[3]; mouse,~15%
same,weight change and clinical signs,[3]; mouse,no weight change and no negative clinical signs
"CO[C@@H]1[C@H](OC(=O)/C=C/C=C/C=C/C=C/C(=O)O)CC[C@]2(CO2)[C@H]1[C@@]1(C)O[C@@H]1CC=C(C)C [Fumagillin, reference compound]",IC50,[4],2 nM
same,"Mean ± SE degradation at 4 wk and 37°C, 75% humidity",[5],30.37 ± 1.12%
same,"Mean ± SE degradation at 4 wk and 37°C, 75% humidity",[5]; listed as fumagillin,30.37%
same,"Mean ± SE degradation at 4 wk and 37°C, uncontrolled humidity",[5],20.22 ± 3.90%
same,"Mean ± SE degradation at 4 wk and 37°C, uncontrolled humidity",[5]; listed as fumagillin,20.22%
same,IC50,[6],10 nM
